# Reference: patent publication US20070105898A1, “Process for the production of cilostazol” (Apotex Pharmachem Inc., priority 2005, published 2007)
# Experiment: Particle size distribution of precipitated cilostazol particles
# Type: physicochemical
# Conditions: filtered, dried
# Protocol: A hot solution (70-75° C.) of cilostazol (23 g) in 1-methyl-2-pyrrolidinone (69 mL) was slowly added over a period of 5-10 min into water (345 mL) at 0-5° C. with stirring. The suspension was stirred at 0-5° C. for 1-2 hrs, filtered and rinsed with water (40 mL) and methanol (20 mL). The solid was dried under vacuum at 55-60° C. to give 22.1 g (yield 96%) cilostazol as a white powder. Particle size distribution: d(0.1)=0.71 micrometres, d(0.5)=5.94 mircrometres, d(0.9)=30.59 micrometres.
# A hot solution (70-75° C.) of cilostazol (20 g) in 1-methyl-2-pyrrolidinone (40 mL) was slowly added over a period of 5-10 min into toluene (250 mL) at 0-5° C. with stirring. The suspension was stirred at 0-5° C. for 1-2 hrs, filtered and rinsed with toluene (100 mL). The solid was dried under vacuum at 55-60° C. to give 18.2 g (yield 91%) cilostazol as a white powder. Particle size distribution: d(0.1)=0.80 micrometres, d(0.5)=3.90 mircrometres, d(0.9)=25.56 micrometres.
# [1] = Example 2: hot 1-methyl-2-pyrrolidinone solution added into water at 0-5° C.
# [2] = Example 3: hot 1-methyl-2-pyrrolidinone solution added into toluene at 0-5° C.
smiles,measurement,setting,value
"O=C1CCc2cc(OCCCCc3nnnn3C3CCCCC3)ccc2N1 [cilostazol, 6-[4-(1-cyclohexyl-1H-tetrazol-5-yl)butoxy]-3,4-dihydro-2(1H)-quinolinone]",Particle size distribution d(0.1),[1],0.71 micrometres
same,Particle size distribution d(0.5),[1],5.94 mircrometres
same,Particle size distribution d(0.9),[1],30.59 micrometres
same,Particle size distribution d(0.1),[2],0.80 micrometres
same,Particle size distribution d(0.5),[2],3.90 mircrometres
same,Particle size distribution d(0.9),[2],25.56 micrometres
